From US20100166660A1, “METHODS OF MODELING MIGRAINE PAIN AND IDENTIFYING CANDIDATE COMPOUNDS FOR THE TREATMENT OF MIGRAINE” (priority 2007, published 2010)

Tests used:
Assay type in all cases: in vivo, rat
[1] = test system: Male Sprague Dawley rats; assay: Dural stimulus-induced tactile hyperesthesia of the hindpaw (50% paw withdrawal threshold, von Frey filaments); settings: administered to the dura; results two hours after treatment; FIG. 4
Experimental: Male Sprague Dawley rats were anesthetized using ketamine/xylazine (80-100 mg/kg, intraperitoneal). The top of the head was shaved using a rodent clipper (Oster Golden A5 w/size 50 blade), and the shaved area was cleaned with betadine and 70% ethanol. Animals were placed into a stereotaxic apparatus (Stoelting Co., #51600) and the body core temperatures of 37° C. were maintained using a heating pad placed below the animals. Within the shaved and cleaned area on the head, a 2 cm incision was made using a scalpel with a #10 blade, and any bleeding was cleaned using sterile cotton swabs. […]
Paw withdrawal thresholds to tactile stimuli were determined in response to probing with calibrated von Frey filaments (Stoelting Co., #58011). […] The 50% paw withdrawal threshold was determined by the non-parametric method of Dixon (Dixon, Ann. Rev. Pharmacol. Toxicol. 20:441-462, 1980; also see, e.g., Chaplan et al., J. Neurosci. Meth. 53:55-63, 1994). […] This “up-down” method was repeated until three changes in behavior were determined. […]
The 50% paw withdrawal threshold was determined as (10^[Xf+kδ])/10,000, where Xf is the value of the last von Frey filament employed, k is the Dixon value for the positive/negative pattern, and δ is the mean (log) difference between stimuli. […]

[2] = test system: Male Sprague Dawley rats; assay: Candidate compound effect on facial tactile hyperesthesia induced by dural inflammation (IM cocktail)
Experimental: In another set of experiments, facial response thresholds of the rats to tactile stimuli were determined. Calibrated von Frey filaments were applied perpendicularly to the midline of the forehead within a 3 mm diameter area just above the plane of the eyes, for six to eight seconds, until the filaments buckled slightly. A positive response was indicated by a sharp withdrawal of the head, which sometimes included an attempt to grasp and/or bite the filament. Special care was taken when applying the filaments to the forehead in order to prevent a positive facial response due to dynamic force and/or deflection of the hairs. The 50% facial response threshold was determined by the non-parametric method of Dixon. […] This “up-down” method was repeated until three changes in behavior were determined. The pattern of positive and negative responses was tabulated.
The 50% facial response threshold was determined as (10^[Xf+kδ])/10,000, where Xf is the value of the last von Frey filament employed, k is the Dixon value for the positive/negative pattern, and δ is the mean (log) difference between stimuli. Only naïve animals with baselines of eight grams were used in the experiment. Eight grams was used as the maximal cut-off. […]

[3] = test system: Male Sprague Dawley rats; assay: Candidate compound effect on tactile hyperesthesia of the hindpaw induced by dural inflammation (IM cocktail)
Experimental: Paw withdrawal thresholds to tactile stimuli were determined in response to probing with calibrated von Frey filaments (Stoelting Co., #58011). The von Frey filaments were applied perpendicularly to the plantar surface of the hindpaw of the animal until it buckled slightly, and were held for three to six seconds. A positive response was indicated by a sharp withdrawal of the paw. The 50% paw withdrawal threshold was determined by the non-parametric method of Dixon (Dixon, Ann. Rev. Pharmacol. Toxicol. 20:441-462, 1980; also see, e.g., Chaplan et al., J. Neurosci. Meth. 53:55-63, 1994). […] This “up-down” method was repeated until three changes in behavior were determined. The pattern of positive and negative responses was tabulated.
The 50% paw withdrawal threshold was determined as (10^[Xf+kδ])/10,000, where Xf is the value of the last von Frey filament employed, k is the Dixon value for the positive/negative pattern, and δ is the mean (log) difference between stimuli. Only naïve animals with baselines of 11 to 15 grams were used in the experiment. Fifteen grams was used as the maximal cut-off. Five days post-migraine surgery, paw withdrawal thresholds were re-tested using the same habituation and von Frey procedure as stated above. Data were converted to percent “antiallodynia” by the following formula: percent antiallodynia=100×(test value−post-treatment baseline value)/(pretreatment baseline value−post-treatment baseline value).
After establishing baseline paw withdrawal thresholds, individual animals were removed from the testing chamber, the cap of the migraine intracranial guide tube was removed, and animals received an injection of either an IM cocktail (1 mM histamine, 1 mM serotonin, 1 mM bradykinin, and 1 mM prostaglandin E2) or vehicle (i.e., control) at 10 μl volume via the intracranial guide tube over a five- to ten-second period. The IM cocktail was made fresh on the day of each experiment. The cap of the intracranial guide tube was replaced, individual animals were placed back into their corresponding testing chamber, and paw withdrawal thresholds were measured at one-hour intervals over a six-hour time course. […] Data were converted to percent “antiallodynia” by the following formula: percent antiallodynia=100×(test value−post-treatment baseline value)/(pretreatment baseline value−post-treatment baseline value).
Rats were anesthetized with ketamine/xylazine (80-100 mg/kg, intraperitoneal) for stereotaxic placement of bilateral cannulae in the RVM. […]

[4] = test system: rats; assay: Oral administration of compounds in the migraine model of the invention (tactile allodynia)
Excerpt: Oral delivery was accomplished by using an 18-gauge gavage needle attached to a 1 cc syringe.

[5] = test system: rats; assay: Model for allodynia: continuous drug infusion, then paw withdrawal threshold with von Frey filaments; settings: continuous infusion (sumatriptan: 24 hour infusion at 0.6 mg/k/day); Appendix A-5
Experimental: We have developed a model to determine the propensity for a compound to induce allodynia upon administration. Briefly, rats are infused continuously with a drug for a specified period of time. After the time, rats are probe with von Frey filaments to determine the paw withdrawal threshold. The compound may be administered for more than 2, 3, 4, 5, 6, 7, 8, 9, 10, 11, 12, 13, 14, 15, 16, 17, 18, 19, 20, 21, 22, 23, or 24 hours.

SMILES: N[C@@H](CCC(=O)N[C@@H](CSN=O)C(=O)NCC(=O)O)C(=O)O [SNOG, s-nitrosylglutathione]
- tactile hyperesthesia of the hindpaw [1]: produced a tactile hyperesthesia effect similar to that induced by administration of the IM cocktail

SMILES: CCCCN1CCCCC1C(=O)Nc1c(C)cccc1C (centres unmarked) [bupivacaine]
- facial response threshold versus rats with dural IM cocktail but no compound ([2]; administration in the RVM thirty minutes after IM cocktail, FIGS. 7A-7B): increase in facial response threshold
- paw withdrawal threshold versus rats with dural IM cocktail but no compound ([3]; administration in the RVM thirty minutes after IM cocktail, FIG. 9A): increase in paw withdrawal threshold
- paw withdrawal threshold versus rats with dural IM cocktail but no compound ([3]; administration in the RVM two hours after IM cocktail, FIG. 9B): significant increase in test animal paw withdrawal threshold

SMILES: CN1CC=C(c2c[nH]c3ccc(NC(=N)c4cccs4)cc23)CC1 [cpd 1]
- attenuation of tactile allodynia in the migraine model ([4]; after oral administration, Appendix A-4): attenuated tactile allodynia
- oral activity in the migraine model ([4]; oral, Appendix A-3): orally active
- induction of tactile allodynia after continuous infusion [5]: do not induce tactile allodynia

SMILES: CNS(=O)(=O)Cc1ccc2[nH]cc(CCN(C)C)c2c1 [sumatriptan]
- facial response threshold versus rats with dural IM cocktail but no compound ([2]; systemic administration thirty minutes after IM cocktail, FIGS. 6A-6B): increase in facial response threshold
- paw withdrawal threshold versus rats with dural IM cocktail but no compound ([3]; 0.6 mg/kg s.c. ten minutes prior to IM cocktail, FIG. 8): increase in paw withdrawal threshold
- development of tactile hyperesthesia (paw withdrawal thresholds) ([3]; sumatriptan succinate 1 mg/kg s.c. five minutes prior to dural IM cocktail, two hours after dural treatment, FIG. 10): prevent or ameliorate the development of tactile hyperesthesia
- induction of tactile allodynia after continuous infusion [5]: induces tactile allodynia
